Data reported in US20170280720A1, “ARGININE […] INHIBITORS AND USES THEREOF” (EPIZYME, INC., priority 2014, published 2017).

Assays:
human PRMT1 = molecular target: T1, human PRMT1 (Homo sapiens, UniProt Q99873); assay: PRMT1 biochemical assay (3H-SAM Flashplate, peptide substrate); conditions: read-out: PRMT1_ IC50
T1 construct: GST-tagged PRMT1; made in house; host or cells: High Five insect cells (baculovirus, pFastBacI)
From the text: S-adenosylmethionine (SAM), S-adenosylhomocysteine (SAH), bicine, Tween20, dimethylsulfoxide (DMSO), bovine skin gelatin (BSG), and Tris(2-carboxyethyl)phosphine hydrochloride solution (TCEP) were purchased from Sigma-Aldrich at the highest level of purity possible. ^3H-SAM was purchase from American Radiolabeled Chemicals with a specific activity of 80 Ci/mmol. 384-well streptavidin Flashplates were purchased from PerkinElmer.
Peptide representative of human histone H4 residues 36-50 was synthesized with an N-terminal linker-affinity tag motif and a C-terminal amide cap by 21st Century Biochemicals. The peptide was purified by high-performance liquid chromatography (HPLC) to greater than 95% purity and confirmed by liquid chromatography mass spectrometry (LC-MS). The sequence was Biot-Ahx-[…]-amide (SEQ ID NO.: 1).
Full-length human PRMT1 isoform 1 (NM_001536.5) transcript clone was amplified from an HEK 293 cDNA library, incorporating flanking 5′ sequence encoding a FLAG tag ([…]) (SEQ ID NO.: 2) fused directly to Met 1 of PRMT1. The amplified gene was subcloned into pFastBacI (Life Technologies) modified to encode an N-terminal GST tag and a TEV cleavage sequence ([…] […] […] […] QGGNS)(SEQ ID NO.: 3) fused to Asp of the Flag tag of PRMT1.
Recombinant baculovirus were generated according to Bac-to-Bac kit instructions (Life Technologies). Protein over-expression was accomplished by infecting exponentially growing High Five insect cell culture at 1.5×10^6 cell/ml with 1:100 ratio of virus. Infections were carried out at 27° C. for 48 hours, harvested by centrifugation, and stored at −80° C. for purification.
GST-tagged PRMT1 was eluted with 50 mM Tris, 2 mM glutathione, pH 7.8, dialysed in buffer A and concentrated to 1 mg/mL. The purity of recovered protein was 73%. Reference: Wasilko, D. J. and S. E. Lee: “TIPS: titerless infected-cells preservation and scale-up” Bioprocess J., 5 (2006), pp. 29-32.
General Procedure for PRMT1 Enzyme Assays on Peptide Substrates.
The assays were all performed in a buffer consisting of 20 mM Bicine (pH=7.6), 1 mM TCEP, 0.005% BSG, and 0.002% Tween 20, prepared on the day of use. Compounds in 100% DMSO (1 ul) were spotted into a polypropylene 384-well V-bottom plates (Greiner) using a Platemate Plus outfitted with a 384-channel head (Thermo Scientific). DMSO (1 ul) was added to Columns 11, 12, 23, 24, rows A-H for the maximum signal control and 1 ul of SAH, a known product and inhibitor of PRMT1, was added to columns 11, 12, 23, 24, rows I-P for the minimum signal control. A cocktail (40 ul) containing the PRMT1 enzyme was added by Multidrop Combi (Thermo-Fisher). The compounds were allowed to incubate with PRMT1 for 30 min at room temperature, then a cocktail (10 ul) containing SAM and peptide was added to initiate the reaction (final volume=51 ul). The final concentrations of the components were as follows: PRMT1 was 0.5 nM, ^3H-SAM was 200 nM, non-radiolabeled SAM was 1.5 uM, peptide was 20 nM, SAH in the minimum signal control wells was 1 mM, and the DMSO concentration was 2%. The assays were stopped by the addition of non-radiolabeled SAM (10 ul) to a final concentration of 300 uM, which dilutes the ^3H-SAM to a level where its incorporation into the peptide substrate is no longer detectable. 50 ul of the reaction in the 384-well polypropylene plate was then transferred to a 384-well Flashplate and the biotinylated peptides were allowed to bind to the streptavidin surface for at least 1 hour before being washed once with 0.1% Tween20 in a Biotek ELx405 plate washer. The plates were then read in a PerkinElmer TopCount plate reader to measure the quantity of ^3H-labeled peptide bound to the Flashplate surface, measured as disintegrations per minute (dpm) or alternatively, referred to as counts per minute (cpm).
Where dpm=disintegrations per minute, cmpd=signal in assay well, and min and max are the respective minimum and maximum signal controls. […]

PRMT5 = PRMT5 (Homo sapiens, UniProt O14744); assay: PRMT5 IC50 (Table 2; no method described); format: biochemical; conditions: read-out: PRMT5_ IC50
Human CARM1 (PRMT4) = molecular target: T2, Human CARM1 (PRMT4) (Homo sapiens, UniProt Q86X55); assay: CARM1 biochemical assay (3H-SAM Flashplate, peptide substrate); conditions: read-out: CARM1_ IC50
T2 construct: Flag-CARM1-His; made in house; host or cells: HEK 293F cells (BacMam baculovirus, pFastBacMam)
T2 sequence (Q86X55 2-585 isoform Q86X55-1): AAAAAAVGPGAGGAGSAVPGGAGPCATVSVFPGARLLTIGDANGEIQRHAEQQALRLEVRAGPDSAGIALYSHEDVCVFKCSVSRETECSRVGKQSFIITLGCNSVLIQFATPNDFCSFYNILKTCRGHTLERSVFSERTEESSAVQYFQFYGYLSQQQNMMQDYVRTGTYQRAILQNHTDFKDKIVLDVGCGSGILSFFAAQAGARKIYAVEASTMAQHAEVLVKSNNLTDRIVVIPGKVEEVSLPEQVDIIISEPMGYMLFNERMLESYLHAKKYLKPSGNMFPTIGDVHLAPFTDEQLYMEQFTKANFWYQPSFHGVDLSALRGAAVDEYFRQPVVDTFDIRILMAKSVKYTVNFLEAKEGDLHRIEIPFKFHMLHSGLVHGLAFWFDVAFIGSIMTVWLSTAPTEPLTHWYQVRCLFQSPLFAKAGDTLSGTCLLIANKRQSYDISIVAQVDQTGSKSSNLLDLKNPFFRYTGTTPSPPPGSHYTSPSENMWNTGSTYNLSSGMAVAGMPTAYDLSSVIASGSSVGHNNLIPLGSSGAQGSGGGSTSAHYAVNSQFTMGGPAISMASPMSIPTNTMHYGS
Outline: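 FLAG/His-tagged human CARM1 (isoform 1, Δ539-561, baculovirus-expressed), 0.25 nM, preincubated 30 min at room temperature with compound (2% DMSO) in 20 mM Bicine pH 7.6, then reacted with 30 nM 3H-SAM and 250 nM biotinylated H3 16-30 peptide (R26 monomethyl). Stopped with 300 uM cold SAM; labelled peptide captured on streptavidin Flashplate; % inhibition versus DMSO and 1 mM SAH controls fitted to a 4- or 3-parameter curve.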

T1 sequence (Q99873 with tags, fused parts or gaps): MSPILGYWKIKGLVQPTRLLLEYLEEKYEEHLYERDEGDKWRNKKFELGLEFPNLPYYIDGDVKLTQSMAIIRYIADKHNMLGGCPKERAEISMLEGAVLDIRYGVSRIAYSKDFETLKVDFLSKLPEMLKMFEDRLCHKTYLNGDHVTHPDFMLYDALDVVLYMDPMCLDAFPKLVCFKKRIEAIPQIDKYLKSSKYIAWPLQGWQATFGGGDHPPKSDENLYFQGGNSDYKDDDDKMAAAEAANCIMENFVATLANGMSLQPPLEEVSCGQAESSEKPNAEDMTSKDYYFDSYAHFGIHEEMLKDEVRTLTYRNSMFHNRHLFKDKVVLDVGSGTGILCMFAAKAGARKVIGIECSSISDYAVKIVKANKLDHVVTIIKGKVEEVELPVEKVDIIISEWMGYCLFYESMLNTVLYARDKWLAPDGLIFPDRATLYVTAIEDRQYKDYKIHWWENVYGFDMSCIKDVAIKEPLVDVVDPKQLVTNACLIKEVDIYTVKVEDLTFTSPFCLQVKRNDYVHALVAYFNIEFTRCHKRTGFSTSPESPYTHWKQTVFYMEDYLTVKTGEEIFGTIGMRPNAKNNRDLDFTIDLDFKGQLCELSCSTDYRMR
PRMT5, sequence (O14744 whole entry, species assumed): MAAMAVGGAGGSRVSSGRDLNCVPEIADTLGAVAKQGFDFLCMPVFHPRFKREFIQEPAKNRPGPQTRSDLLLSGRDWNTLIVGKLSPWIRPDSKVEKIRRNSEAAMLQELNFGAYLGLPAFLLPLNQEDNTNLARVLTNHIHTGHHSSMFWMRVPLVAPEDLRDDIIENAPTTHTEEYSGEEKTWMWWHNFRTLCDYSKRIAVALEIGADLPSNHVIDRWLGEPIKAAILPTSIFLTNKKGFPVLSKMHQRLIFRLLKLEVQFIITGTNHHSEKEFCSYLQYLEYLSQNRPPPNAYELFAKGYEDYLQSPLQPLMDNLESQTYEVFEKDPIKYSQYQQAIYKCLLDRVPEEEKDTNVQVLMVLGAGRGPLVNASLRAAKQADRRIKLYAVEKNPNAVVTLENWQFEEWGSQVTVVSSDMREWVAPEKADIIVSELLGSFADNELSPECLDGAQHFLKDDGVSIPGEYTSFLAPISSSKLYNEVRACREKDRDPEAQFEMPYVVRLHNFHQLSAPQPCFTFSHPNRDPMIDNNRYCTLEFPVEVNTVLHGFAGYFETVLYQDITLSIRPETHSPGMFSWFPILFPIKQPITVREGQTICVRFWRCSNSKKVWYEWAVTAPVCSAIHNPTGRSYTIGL
PRMT5, sequence (Q9BQA1 whole entry partner, species assumed): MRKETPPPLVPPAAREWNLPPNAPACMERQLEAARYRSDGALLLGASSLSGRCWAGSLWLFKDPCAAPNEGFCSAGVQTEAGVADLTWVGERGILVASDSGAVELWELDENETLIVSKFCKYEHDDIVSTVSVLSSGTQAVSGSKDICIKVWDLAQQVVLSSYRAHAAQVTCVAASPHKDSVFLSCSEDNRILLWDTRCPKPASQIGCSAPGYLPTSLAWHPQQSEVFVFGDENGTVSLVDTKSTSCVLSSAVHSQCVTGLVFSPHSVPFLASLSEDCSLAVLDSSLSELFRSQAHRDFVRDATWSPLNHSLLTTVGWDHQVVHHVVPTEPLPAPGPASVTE

SMILES | IC50 (human PRMT1) | IC50 (PRMT5) | IC50 (Human CARM1 (PRMT4))
NCCNCc1ccc(-c2ccc3nc(-c4ccc5cccnc5c4)[nH]c3c2)cc1 [Compound 77] | 317 nM | 258 nM | –
COc1ccc(-n2cnc3ccc(-c4ccc(CNCCN)cc4)cc32)cc1 [Compound 89] | 414 nM | 417 nM | –
COc1cccc(Cn2cnc3ccc(-c4ccc(CNCCN)cc4)cc32)c1 [Compound 90] | 430 nM | 125 nM | –
NCCNCc1ccc(-c2ccc3[nH]c(=O)n(-c4ccccc4)c3c2)cc1 [Compound 91] | 431 nM | 502 nM | –
NCCNCc1ccc(-c2ccc3ncn(-c4ccccc4)c3c2)cc1 [Compound 113] | 604 nM | 366 nM | –
Cc1cccc(Cn2cnc3ccc(-c4ccc(CNCCN)cc4)cc32)c1 [Compound 127] | 802 nM | 74.5 nM | –
NCCNCc1ccc(-c2ccc3ncn(C4CCCC4)c3c2)cc1 [Compound 146] | 1330 nM | 173 nM | –
CNCCN(C)Cc1cccc(-c2cc(C(=O)N[C@@H](C)c3ccccc3)c3cnn(Cc4ccccc4F)c3n2)c1 [Compound 283] | – | 29200 nM | 131 nM
CC(C)n1ncc2c(C(=O)N(C)Cc3cccc(F)c3)cc(-c3cccc(CN(C)CCN)c3)nc21 [Compound 287] | – | 4170 nM | 153 nM
CNCCN(C)Cc1cccc(-c2cc(C(=O)N[C@@H](C)c3ccccc3)c3cnn(-c4ccccn4)c3n2)c1 [Compound 303] | – | 13300 nM | 235 nM
CNCCN(C)Cc1cccc(-c2cc(C(=O)N(C)Cc3ccccc3F)c3cnn(C(C)C)c3n2)c1 [Compound 304] | – | 670 nM | 239 nM
COc1ccc(Cn2cnc3ccc(-c4cccc(CNCCN)c4)cc32)cc1 [Compound 309] | – | 1070 nM | 272 nM
NCCNCc1ccc(-c2ccc3ncn(Cc4cccc(C(=O)N5CCCC5)c4)c3c2)cc1 [Compound 323] | – | 127 nM | 756 nM
NCCNCc1ccc(-c2ccc3cnn(Cc4cccc(C(=O)N5CCCC5)c4)c3c2)cc1 [Compound 324] | – | 97.3 nM | 887 nM
NCCNCc1ccc(-c2ccc3ncn(Cc4cccc(C(=O)NC5CCCc6ccccc65)c4)c3c2)cc1 (centres unmarked) [Compound 325] | – | 25.3 nM | 1030 nM
NCCNCc1ccc(-c2ccc3cnn(Cc4cccc(C(=O)N5CCCCC5)c4)c3c2)cc1 [Compound 326] | – | 170 nM | 1270 nM
NCCNCc1ccc(-c2ccc3ncn(Cc4cccc(C(=O)NC5CCCCC5)c4)c3c2)cc1 [Compound 327] | – | 72.8 nM | 1600 nM
NCCNCc1ccc(-c2ccc3ncn(Cc4cccc(C(=O)Nc5cccc6c5CCCC6)c4)c3c2)cc1 [Compound 328] | – | 80.5 nM | 2190 nM
CN1CCN(C(=O)c2cccc(Cn3cnc4ccc(-c5ccc(CNCCN)cc5)cc43)c2)CC1 [Compound 329] | – | 136 nM | 2480 nM
